By IC50 is commonly meant the concentration that inhibits the measured activity by half.

Several values for one entry are separate records, joined by “and”; a condition that tells them apart may be missing. Identical values can stand only once.

These results are taken from patent publication US9932288B2, “Chemical compound for inhibition of SHP2 function and for use as an anti-cancer agent” (West Virginia University, priority 2015, dated 2018).

The target in test [1] is T1, PTP domain of SHP2 fused to GST (Homo sapiens, UniProt Q06124).
T1 construct: The PTP domains of SHP2 and SHP1 fused to glutathione-S-transferase (GST-PTPs) were expressed in E. coli; GST (N); made in house; host or cells: E. coli
T1 sequence (Q06124 247-517 limits assumed): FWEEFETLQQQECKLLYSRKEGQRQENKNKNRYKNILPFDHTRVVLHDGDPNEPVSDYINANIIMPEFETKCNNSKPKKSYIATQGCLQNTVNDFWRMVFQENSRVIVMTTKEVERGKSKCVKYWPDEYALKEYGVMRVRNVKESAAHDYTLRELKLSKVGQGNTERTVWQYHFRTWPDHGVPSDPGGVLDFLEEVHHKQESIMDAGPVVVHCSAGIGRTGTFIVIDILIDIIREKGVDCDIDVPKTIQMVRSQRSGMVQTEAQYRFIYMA
Nature of the test: phosphatase assay with DiFMUP substrate, GST-PTP of SHP2. The format is biochemical. On the procedure:
(§1) The effect of CNBD on the SHP2 phosphatase activity was tested using the artificial substrate DiFMUP (6,8-difluoro-4-methylumbelliferyl) at a concentration of 20 μM, which is commonly used in phosphatase assays. CNBDA concentrations of 1.94 mM, 194 μM, 97 μM, 48.5 μM, 24.25 μM, 19.4 μM, 12.9 μM, and 1.94 μM in water were used in the analysis. The PTP domains of SHP2 and SHP1 fused to glutathione-S-transferase (GST-PTPs) were expressed in E. coli using a standard protein expression protocol and purified on glutathione sepharose beads as recommended by the manufacturer (Pharmacia), and quantified by measuring absorbance at 280 nm and comparison with BSA standards. Reactions were performed at 30° C. in 100 μl volume of PTPase buffer containing 25 mM Tris-HCl pH7.0, 50 mM NaCl, 2 mM EDTA and 10 mM dithiothreitol (DTT). Change in absorbance (production of DiFMU, dephosphorylated form of DiFMUP) was followed in a plate-reading visible spectrophotometer at 450 nm.

In test [2] the target is T2, PTP domain of SHP1 fused to GST (Homo sapiens, UniProt P29350).
T2 construct: The PTP domains of SHP2 and SHP1 fused to glutathione-S-transferase (GST-PTPs) were expressed in E. coli; GST (N); made in house; host or cells: E. coli
T2 sequence (P29350 244-515 limits assumed): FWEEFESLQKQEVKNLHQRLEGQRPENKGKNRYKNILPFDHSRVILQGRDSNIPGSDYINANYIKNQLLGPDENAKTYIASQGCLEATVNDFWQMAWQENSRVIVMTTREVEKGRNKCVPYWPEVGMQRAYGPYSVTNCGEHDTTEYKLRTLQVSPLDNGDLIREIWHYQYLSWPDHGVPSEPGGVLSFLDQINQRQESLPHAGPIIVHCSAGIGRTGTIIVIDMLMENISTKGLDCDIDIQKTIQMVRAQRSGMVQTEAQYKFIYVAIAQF
Nature of the test: phosphatase assay with DiFMUP substrate, GST-PTP of SHP1. The settings on record: DiFMUP 20 μM, 30° C., pH7.0. The format is biochemical. On the procedure: as §1

Test [3] concerns HER2-positive BT474 breast cancer cell line. Nature of the test: 2D culture cell growth and cell death, BT474. The settings on record: BT474, 2D culture. It is filed as cell-based. As for the experimental part: Therefore, the anti-cancer activity of CNBDA was tested in breast cancer cells under 2-dimensional (culture plates), soft agar, and suspension cultures. Because SHP2 is an essential downstream mediator of receptor tyrosine kinase (RTK) signaling, including HER2 and HER1 [24, 25], breast cancer cells that harbor dysregulated RTK and SHP2 signaling were chosen for testing the effect of CNDBA. Accordingly, the BT474 cell line that overexpress the human epidermal growth factor receptor 2 (HER2) and the MDA-MB468 cell line that overexpress HER1 (also known as EGFR) were used. The non-transformed MCF-10A breast epithelial cells were used as a “normal” control in these studies. The BT474 cells were grown in RPMI 1640, while the MDA-MB468 cells were grown in Dulbecco's Modified Eagle's Medium (DMEM), both supplemented with 10% fetal calf serum. On the other hand, the MCF-10A cells were grown in DMEM supplemented with […] recombinant human insulin, 20 ng/ml EGF (PeproTech), […] hydrocortisone, 100 ng/ml cholera toxin (Sigma) and 5% horse serum, as described previously. All cells were grown in a 37° C. incubator supplied with 5% CO2. In the 2D culture studies, cells were treated with vehicle alone (PBS: phosphate buffered saline) or three different concentration of CNBDA. When the density of cells reached approximately 30%, each plate was treated with vehicle alone (placebo) or the indicated concentrations of CNBDA. In the HER2-positive BT474 breast cancer cell line, CNBDA suppressed cell growth at the lowest concentration used (100 ng/ml) as determined by absence of gradual increase in cell density (FIG. 6A). But, at the 72 hour time point, it was possible to see signs of cell death as evidenced by shrinkage in the extended patchy growth property of these cells. At 500 ng/ml and higher concentrations, CNBDA induced cell death within 24 hours which became more evident gradually.
At the lowest concentration used, CNBDA was able to block cell growth and induction of cell death was apparent only after 48 hours. […]

In test [4] the test system is EGFR-amplified MDA-MB468 basal-like breast cancer cell line. Nature of the test: 2D culture cell growth and cell death, MDA-MB468. It is filed as cell-based. The settings on record: MDA-MB468, 2D culture. On the procedure:
(§2) Therefore, the anti-cancer activity of CNBDA was tested in breast cancer cells under 2-dimensional (culture plates), soft agar, and suspension cultures. Because SHP2 is an essential downstream mediator of receptor tyrosine kinase (RTK) signaling, including HER2 and HER1 [24, 25], breast cancer cells that harbor dysregulated RTK and SHP2 signaling were chosen for testing the effect of CNDBA. Accordingly, the BT474 cell line that overexpress the human epidermal growth factor receptor 2 (HER2) and the MDA-MB468 cell line that overexpress HER1 (also known as EGFR) were used. The non-transformed MCF-10A breast epithelial cells were used as a “normal” control in these studies. The BT474 cells were grown in RPMI 1640, while the MDA-MB468 cells were grown in Dulbecco's Modified Eagle's Medium (DMEM), both supplemented with 10% fetal calf serum. On the other hand, the MCF-10A cells were grown in DMEM supplemented with […] recombinant human insulin, 20 ng/ml EGF (PeproTech), […] hydrocortisone, 100 ng/ml cholera toxin (Sigma) and 5% horse serum, as described previously. All cells were grown in a 37° C. incubator supplied with 5% CO2. […] In the HER2-positive BT474 breast cancer cell line, CNBDA suppressed cell growth at the lowest concentration used (100 ng/ml) as determined by absence of gradual increase in cell density (FIG. 6A). […]

Test [5] has as its system non-tumorigenic MCF-10A breast epithelial cells. The test can be described thus: 2D culture cell growth, MCF-10A normal control. It is filed as cell-based. On the procedure: as §2
Test [6] relates to BT474 cells. Nature of the test: soft agar anchorage-independent growth, BT474. The format is cell-based. On the procedure: (§3) Next, the efficacy of CNBDA was evaluated by the soft agar assay, a technique commonly used to determine ability of cells to grow in an anchorage-independent manner, one of the hall marks of a cancer cell. The HER2-positive BT474 and the HER1-positive MDA-MB468 cells were seeded in soft agar, treated with placebo or CNBDA at variable concentrations, cultured for 10 days, and their ability to form colonies was monitored by observation under a microscope. […] While the placebo-treated BT474 and MDA-MB468 cells formed larger and numerous colonies in 10 days, the CNBDA-treated counterparts formed smaller and fewer ones (FIG. 6B). In addition, the concentration of CNBDA that abolished colony formation in soft agar was at least 4-fold lower than the amount that caused cell death in 2D cultures in both cell lines (compare FIGS. 6A and 6B).
(§4) Note than the number and size of colonies decreases as the concentration of CNBDA increases. Also note that the concentration of CNBDA that abolished colony formation in the HER2-positive BT474 breast cancer cell line is 2-fold lower than the amount used in the MDA-MB468 cells.

For test [7], the system named is MDA-MB468 cells. Nature of the test: soft agar anchorage-independent growth, MDA-MB468. It is filed as cell-based. As for the experimental part: as §3, §4
In test [8] the test system is BT474 cells. Nature of the test: mammosphere formation in suspension culture, BT474. It is filed as cell-based. As for the experimental part:
(§5) Finally, the effect of CNBDA on the above mentioned breast cancer cells (BT474 and MDA-MB468) was evaluated by the mammosphere formation assay in which cells with stem-like properties (including cancer stem cells) only can survive and form these structures. Briefly, cells were cultured in ultra-low adherence plates (1×10^6 cells per 6 cm plate) in a medium containing serum-free DMEM, 1 μg/ml hydrocortisone, 10 μg/ml insulin, 10 ng/ml EGF, 10 ng/ml FGF, 5 ng/ml heparin, and B27 (Invitrogen). After 10 days of culture, primary mammosphere formation was determined by observation under a microscope at which time pictures of mammospheres was taken at 4×objective. Next, the primary mammospheres were collected by centrifugation at 1000 rpm, dissociated to single cells by trypsination and pipetting, and re-cultured under same conditions to observe effect of SHP2 silencing on secondary mammosphere-forming capacity. Pictures of secondary cultures also were taken after 10 days at 4×objective. […] Similar to the anchorage-independent growth studies, the concentration of CNBDA that led to exhaustion of mammosphere formation was 4-5 fold lower than the amount needed for cell killing in the 2D cultures.
(§6) Note than the number and size of mammospheres decreases as the concentration of CNBDA increases.

For test [9], the system named is MDA-MB468 cells. The test can be described thus: mammosphere formation in suspension culture, MDA-MB468. The format is cell-based. On the procedure:
as §5, §6

For the molecule `CCCCCCCCCOc1c(CCCC(=O)O)cc(-c2ccc(C(=O)O)cc2)cc1CCCC(=O)O` [CNBDA], the “mode of SHP2 inhibition” value in test [1] is “competitive SHP2 inhibitor”. The IC50 worked out at 12 µM in test [1] (DiFMUP 20 μM, 30° C., pH7.0) and 122 µM in test [2]. Moreover, the “selectivity for SHP2 over SHP1” value in test [1] (from IC50 values) amounted to 10 fold. The “concentration that induced cell death within 24 hours” value in [3] was at least 500 ng/mL. Besides, the “time at which cell death became apparent at the lowest concentration” value in test [3] (100 ng/ml) is 72 h and > 48 h. The “concentration that suppressed cell growth (lowest used)” value in [3] (absence of increase in cell density) is 100 ng/mL. For the same molecule, the “concentration showing effect, relative to BT474 cells” value in test [4] is “double the concentration”. Also, the “minimum concentration needed to induce cell death after 48 hours” value in test [4] (pilot studies) stood at 1 µg/mL. Further, in test [5] (6 μg/ml), the “effect on cell growth and cell death at the higher concentration used” value is listed as “did not cause a significant decrease in cell growth or induce cell death”. In addition, the “effect on cell growth” value in test [5] (2D culture) was “very little effect”. Moreover, the “concentration abolishing colony formation, fold lower than amount causing cell death in 2D culture” value in the test with BT474 cells [6] (BT474) and with MDA-MB468 cells [7] (MDA-MB468) was “at least 4 fold” each time. For the same molecule, the “colony formation in soft agar” value in the test on BT474 cells [6] (BT474, 10 days, concentration dependent) is listed as “suppression of colony formation”; with MDA-MB468 cells [7] (MDA-MB468, 10 days, concentration dependent) it was “suppression of colony formation”. In the test with BT474 cells [6] (soft agar), the “concentration abolishing colony formation in BT474, fold lower than in MDA-MB468” value amounted to 2 fold. Further, the “concentration exhausting mammosphere formation, fold lower than amount needed for cell killing in 2D cultures” value in the test on BT474 cells [8] (BT474) and in the test on MDA-MB468 cells [9] (MDA-MB468) was 4-5 fold each time. For the same molecule, the mammosphere formation result with BT474 cells [8] (BT474, suspension culture, concentration dependent) is recorded as “suppressed mammosphere formation”; in the test on MDA-MB468 cells [9] (MDA-MB468, suspension culture, concentration dependent), “suppressed mammosphere formation”. Further, the “concentration abolishing mammosphere formation in BT474, fold lower than in MDA-MB468” value with BT474 cells [8] (suspension culture) came to 2 fold.
